Data as given in paper PMC9532399, “The lysosomal transporter TAPL has a dual role as peptide translocator and phosphatidylserine floppase” (Nature Communications, 2022).

Legend:
TAPL Y405A mutant = biological target: T1, TAPL Y405A mutant (Mus musculus, UniProt Q9JJ59, Y405A); experiment: Dithionite-based flip-flop assay, Y405A proteoliposomes; type: biochemical
T1 construct: thrombin cleavage site (C); eGFP (C); 10XHis (C); made in house; host or cells: Trichoplusia ni High Five (Hi5) insect cells, baculovirus (pVL1393)
T1 sequence (Q9JJ59 143-762 Y405A): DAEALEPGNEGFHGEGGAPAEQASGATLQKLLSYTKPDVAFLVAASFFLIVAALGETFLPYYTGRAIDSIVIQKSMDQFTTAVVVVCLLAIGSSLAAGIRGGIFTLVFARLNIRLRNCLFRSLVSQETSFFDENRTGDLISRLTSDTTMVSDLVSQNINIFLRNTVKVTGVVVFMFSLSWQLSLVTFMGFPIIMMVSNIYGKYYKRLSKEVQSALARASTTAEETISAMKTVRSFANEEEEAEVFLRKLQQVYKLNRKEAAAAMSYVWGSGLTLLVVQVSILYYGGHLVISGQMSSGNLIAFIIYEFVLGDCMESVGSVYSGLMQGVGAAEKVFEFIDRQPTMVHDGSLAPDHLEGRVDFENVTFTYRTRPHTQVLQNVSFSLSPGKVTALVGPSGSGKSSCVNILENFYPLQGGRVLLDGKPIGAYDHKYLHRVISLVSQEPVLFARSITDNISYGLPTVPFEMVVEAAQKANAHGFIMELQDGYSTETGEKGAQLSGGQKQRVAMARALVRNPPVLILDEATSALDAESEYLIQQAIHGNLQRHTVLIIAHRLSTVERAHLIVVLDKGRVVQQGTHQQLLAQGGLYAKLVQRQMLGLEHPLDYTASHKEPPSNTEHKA
Experimental: All lipids used in reconstitution were purchased from Avanti Polar Lipids, Inc. (purity > 99%). The in vitro flip–flop assay was performed using NBD* dye-labeled proteoliposomes as described previously. Briefly, E. coli polar lipids and egg PC were mixed in a 1:1 molar ratio, and 0.5% (mol/mol) NBD*-lipid was added. The lipid mixture was then dried under nitrogen gas. The NBD*-lipids used were 18:1-06:0 NBD*-PS (1-oleoyl-2-{6-[(7-nitro-2-1,3-benzoxadiazol-4-yl)amino]hexanoyl}-sn-glycero-3-phosphoserine), 18:1-06:0 NBD*-PC (1-oleoyl-2-{6-[(7-nitro-2-1,3-benzoxadiazol-4-yl)amino]hexanoyl}-sn-glycero-3-phosphocholine), 18:1-06:0 NBD*-PG (1-oleoyl-2-{6-[(7-nitro-2-1,3-benzoxadiazol-4-yl)amino]hexanoyl}-sn-glycero-3-[phospho-rac-(1-glycerol)]), 18:1-06:0 NBD*-PE (1-oleoyl-2-{6-[(7-nitro-2-1,3-benzoxadiazol-4-yl)amino]hexanoyl}-sn-glycero-3-phosphoethanolamine), and 25-NBD*-Cholesterol (25-[N-[(7-nitro-2-1,3-benzoxadiazol-4-yl)methyl]amino]−27-norcholesterol). Thin lipid films were solubilized in 20 mM HEPES–NaOH pH 8.0, 200 mM NaCl and 5% (v/v) glycerol, incubated at RT for 30 min and subjected to 5 freeze–thaw cycles. After extrusion with a Mini-Extruder at 65 °C, final lipid concentrations were determined by phosphorus assays. Briefly, 10 μL of extruded lipid was added to 10 μL of 2% (w/v) ammonium molybdate and 300 μL of concentrated perchloric acid. […] Lipid concentrations were calculated from the absorbance at 820 nm using a standard curve prepared with NaH2PO4 solution. […]
To measure the flip–flop activity, 10 μL of 2 mM NBD*-labeled proteoliposomes were added to 100 μL of reaction buffer (20 mM HEPES–NaOH pH 8.0, 200 mM NaCl, 5 mM ATP and 5% (v/v) glycerol) in the presence of 2 mM MgCl2 (or NaCl), and incubated at 37 °C for 1 h. The mixture was transferred to a 96-well plate and time-dependent fluorescence (λex/λem = 460/538 nm) was recorded every 30 s for 26 min using a fluorescence spectrophotometer (Gemini XPS). After the baseline fluorescence had stabilized, 10 mM sodium dithionite was added to quench the fluorescence of NBD*-lipid present in the outer leaflets of the liposomes. The initial rapid drop and subsequent slow decline in fluorescence intensity were monitored. […] The net percentage of NBD*-lipid translocated across the lipid bilayer was calculated from the following equation[72]: the percentage of protected NBD*-lipid in the inner leaflet = [(FD−F0)/(FT−F0)]×100, and that of accessible NBD*-lipid in the outer leaflet = [(FT−FD)/(FT−F0)]×100, where FT is the total fluorescence of the sample before the addition of dithionite, FD is the fluorescence of the sample after quenching with dithionite, and F0 is any residual fluorescence of the sample after solubilization with Triton X-100. […]

TAPL E664Q mutant = experiment: Dithionite-based flip-flop assay, E664Q proteoliposomes; type: biochemical, mouse; conditions: for NBD*-PS fluorescence intensity (net percentage transported): E664Q
Experimental: All lipids used in reconstitution were purchased from Avanti Polar Lipids, Inc. (purity > 99%). The in vitro flip–flop assay was performed using NBD* dye-labeled proteoliposomes as described previously. Briefly, E. coli polar lipids and egg PC were mixed in a 1:1 molar ratio, and 0.5% (mol/mol) NBD*-lipid was added. The lipid mixture was then dried under nitrogen gas. The NBD*-lipids used were 18:1-06:0 NBD*-PS (1-oleoyl-2-{6-[(7-nitro-2-1,3-benzoxadiazol-4-yl)amino]hexanoyl}-sn-glycero-3-phosphoserine), 18:1-06:0 NBD*-PC (1-oleoyl-2-{6-[(7-nitro-2-1,3-benzoxadiazol-4-yl)amino]hexanoyl}-sn-glycero-3-phosphocholine), 18:1-06:0 NBD*-PG (1-oleoyl-2-{6-[(7-nitro-2-1,3-benzoxadiazol-4-yl)amino]hexanoyl}-sn-glycero-3-[phospho-rac-(1-glycerol)]), 18:1-06:0 NBD*-PE (1-oleoyl-2-{6-[(7-nitro-2-1,3-benzoxadiazol-4-yl)amino]hexanoyl}-sn-glycero-3-phosphoethanolamine), and 25-NBD*-Cholesterol (25-[N-[(7-nitro-2-1,3-benzoxadiazol-4-yl)methyl]amino]−27-norcholesterol). Thin lipid films were solubilized in 20 mM HEPES–NaOH pH 8.0, 200 mM NaCl and 5% (v/v) glycerol, incubated at RT for 30 min and subjected to 5 freeze–thaw cycles. After extrusion with a Mini-Extruder at 65 °C, final lipid concentrations were determined by phosphorus assays. Briefly, 10 μL of extruded lipid was added to 10 μL of 2% (w/v) ammonium molybdate and 300 μL of concentrated perchloric acid. The mixture was heated at 250 °C for 30 min, then cooled to RT and mixed with 1.5 mL of 0.4% (w/v) ammonium molybdate and 250 μL of 9% (w/v) L-ascorbic acid. It was again heated at 100 °C for 6 min and cooled to RT. Lipid concentrations were calculated from the absorbance at 820 nm using a standard curve prepared with NaH2PO4 solution. After accurately determining the lipid concentration, DM-purified protein and 5 mM lipid suspension (solubilized in 5 mM DM) were mixed 1:25 (w/w). […]
To measure the flip–flop activity, 10 μL of 2 mM NBD*-labeled proteoliposomes were added to 100 μL of reaction buffer (20 mM HEPES–NaOH pH 8.0, 200 mM NaCl, 5 mM ATP and 5% (v/v) glycerol) in the presence of 2 mM MgCl2 (or NaCl), and incubated at 37 °C for 1 h. The mixture was transferred to a 96-well plate and time-dependent fluorescence (λex/λem = 460/538 nm) was recorded every 30 s for 26 min using a fluorescence spectrophotometer (Gemini XPS). After the baseline fluorescence had stabilized, 10 mM sodium dithionite was added to quench the fluorescence of NBD*-lipid present in the outer leaflets of the liposomes. The initial rapid drop and subsequent slow decline in fluorescence intensity were monitored. […] The net percentage of NBD*-lipid translocated across the lipid bilayer was calculated from the following equation[72]: the percentage of protected NBD*-lipid in the inner leaflet = [(FD−F0)/(FT−F0)]×100, and that of accessible NBD*-lipid in the outer leaflet = [(FT−FD)/(FT−F0)]×100, where FT is the total fluorescence of the sample before the addition of dithionite, FD is the fluorescence of the sample after quenching with dithionite, and F0 is any residual fluorescence of the sample after solubilization with Triton X-100. Fluorescence values (FT, FD, F0) were calculated as the averages of 5 points on the respective plateau lines. The ΔTMD0-mediated lipid floppase activity was determined by subtracting the percentage of NBD*-lipid fluorescence measured in the presence of Na^+/ATP from that measured in the presence of Mg^2+/ATP.

## CCCCCCCC/C=C\CCCCCCCC(=O)OC[C@H](COP(=O)(O)OC[C@H](N)C(=O)O)OC(=O)CCCCCNc1ccc([N+](=O)[O-])c2nonc12 [NBD*-PS, 1-oleoyl-2-{6-[(7-nitro-2-1,3-benzoxadiazol-4-yl)amino]hexanoyl}-sn-glycero-3-phosphoserine]
TAPL Y405A mutant; Mg2+/ATP minus Na+/ATP, mean n=3
  NBD*-PS fluorescence intensity (net percentage transported outer to inner leaflet): 1.556%
TAPL Y405A mutant; replicate I
  NBD*-PS fluorescence intensity (net percentage transported): 1.636%
TAPL Y405A mutant; replicate II
  NBD*-PS fluorescence intensity (net percentage transported): 1.459%
TAPL Y405A mutant; replicate III
  NBD*-PS fluorescence intensity (net percentage transported): 1.571%
TAPL E664Q mutant; Mg2+/ATP minus Na+/ATP, no peptide, no POPS, mean n=3
  NBD*-PS fluorescence intensity (net percentage transported): 1.892%
TAPL E664Q mutant; replicate I
  NBD*-PS fluorescence intensity (net percentage transported): 1.638%
TAPL E664Q mutant; replicate II
  NBD*-PS fluorescence intensity (net percentage transported): 1.974%
TAPL E664Q mutant; replicate III
  NBD*-PS fluorescence intensity (net percentage transported): 2.062%
TAPL E664Q mutant; catalytically inactive E664Q mutant
  movement of NBD*-PS to the inner leaflet: ~ 1.9%
